Experimental data: ChEMBL document CHEMBL3137667, “[Drug-induced liver injury; fourteenth updated edition of the bibliographic database of liver injuries and related drugs]” (Gastroenterol Clin Biol, 2004)

What was measured:
[1] = human
[2] = human; remark: listed apart in the source
[3] = human; remark: listed apart in the source
[4] = Highest frequency of acute liver toxicity observed during clinical trials, expressed as a percentage. [column '% AIGUE' in source]; conditions: human
[5] = human; remark: listed apart in the source
[6] = human; remark: listed apart in the source
[7] = Comments (NB not yet translated). [column 'COMMENTAIRES' in source]; conditions: human
[8] = human; remark: listed apart in the source
[9] = Highest frequency of moderate liver toxicity observed during clinical trials, expressed as a percentage. [column '% BIOL' in source]; conditions: human
[10] = human, serum, 4383 h
[11] = Times to onset, minimal and maximal, observed in the indexed observations. [column 'DELAI' in source]; conditions: human
[12] = human; remark: listed apart in the source
[13] = human, serum
[14] = human; remark: listed apart in the source
[15] = human, serum; remark: listed apart in the source
[16] = human; remark: listed apart in the source
[17] = human; remark: listed apart in the source
[18] = Proposed mechanism(s) of liver damage. [column 'MEC' in source]; conditions: human
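Throughout, for Hepatotoxicity (association with vascular disease): count of indexed literature references reporting vascular liver injury in humans, e.g. peliosis hepatitis, hepatic veno-occlusive disease or Budd-Chiari syndrome.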
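Throughout, for Hepatotoxicity (benign tumour): value is a count of indexed literature references citing a benign tumour confirmed by histopathology.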
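Throughout, for Hepatotoxicity (choleostasis): human cholestatic liver injury, shown by histopathology or by peak ALT or AST elevation over alkaline phosphatase ratio below 2, value counts indexed literature reports.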
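Throughout, for Hepatotoxicity (chronic liver disease): chronic liver injury confirmed by histopathology or persistently raised serum aminotransferase activity beyond 6 months, value given as the count of indexed literature references.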
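Throughout, for Hepatotoxicity (cirrhosis): value is a count of indexed literature references reporting cirrhosis confirmed by histopathology.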
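Throughout, for Hepatotoxicity (cytolytic): human cytolytic liver injury, shown by histopathology or by a ratio above 5 of peak ALT or AST elevation to alkaline phosphatase elevation, value counts indexed references.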
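Throughout, for Hepatotoxicity (granulomatous hepatitis): value is a count of indexed literature references reporting granulomatous liver disease confirmed by histopathology.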
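Throughout, for Hepatotoxicity (malignant tumour): malignant tumour confirmed by histopathology, value gives the count of indexed literature references reporting it.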
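Throughout, for Hepatotoxicity (severe hepatitis): human clinical data: severe hepatitis, meaning potentially life-threatening liver failure or clinically observed cases, the value counts how many indexed literature references report it.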
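Throughout, for Hepatotoxicity (steatosis): steatosis confirmed by histopathology, value is the count of indexed references.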

Molecule	Hepatotoxicity (malignant tumour) [1]	Hepatotoxicity (steatosis) [2]	Hepatotoxicity (cytolytic) [3]	Hepatotoxicity (acute) [4] [%]	Hepatotoxicity (granulomatous hepatitis) [5]	Hepatotoxicity (animal toxicity known) [6]	Hepatotoxicity (choleostasis) [8]	Hepatotoxicity (moderate) [9] [%]	Hepatotoxicity (chronic liver disease) [10]	Hepatotoxicity (time to onset) [11]	Hepatotoxicity (benign tumour) [12]	Hepatotoxicity (moderate) [13]	Hepatotoxicity (severe hepatitis) [14]	Hepatotoxicity (acute) [15]	Hepatotoxicity (cirrhosis) [16]	Hepatotoxicity (association with vascular disease) [17]	Hepatotoxicity (mechanism) [18]	other results
CCC[C@@H]1C[C@@H](C(=O)N[C@@H]([C@H]2O[C@H](SC)[C@H](O)[C@@H](O)[C@H]2O)[C@H](C)Cl)N(C)C1 [CLINDAMYCIN]	0	0	2	0	1	yes	1	52	1	2 days - 17 days	0	15	0	5	0			Hepatotoxicity (comment) [7]: #CBP
COc1cc(NC(C)CCCN)c2ncccc2c1 (stereo not drawn) [PRIMAQUINE]	0	0	1	0	0	yes	0	0	0	2 days	0	0	0	1	0	0	Overdose	
O=NN(CCCl)C(=O)NCCCl [CARMUSTINE]	0	0	3	23	0	yes	1	26	0	1 week - 6 weeks	0	8	2	6	0	10	Dose-dependant	
ClC=C(Cl)Cl [TRICHLOROETHYLENE]	0	0	14	0	0	yes	0	0	0	1 day - 6 weeks	0	1	14	14	2	0	Toxic Metabolite	
Nc1ccc(/N=N/c2ccccc2)c(N)n1 [PHENAZOPYRIDINE]	0	0	0	0	0	yes	2	0	0	1 week	0	4	0	2	0	0	Allergic, Toxic Metabolite	
Cc1ccc(C(=O)c2cc(O)c(O)c([N+](=O)[O-])c2)cc1 [TOLCAPONE]	0	0				yes			0	1 month - 6 months	0	6		6	0	0		Hepatotoxicity (cytolytic) ([3]; Liver): 6; Hepatotoxicity (acute) ([4]; Liver): 0.7%; Hepatotoxicity (granulomatous hepatitis) ([5]; Liver): 0; Hepatotoxicity (choleostasis) ([8]; Liver): 0; Hepatotoxicity (moderate) ([9]; Liver): 14.3%; Hepatotoxicity (severe hepatitis) ([14]; Liver): 5; Hepatotoxicity (mechanism) ([18]; Liver): Mitochondrial toxicity
BLEOMYCIN	0	0	0	0	0	yes	0	0	0		0	1	0	0	0	0		Hepatotoxicity (comment) [7]: HYPERBILIRUBINEMIE
CO[C@H](C(=O)[C@@H](O)[C@@H](C)O)[C@@H]1Cc2cc3cc(O[C@H]4C[C@@H](O[C@H]5C[C@@H](O)[C@H](O)[C@@H](C)O5)[C@H](O)[C@@H](C)O4)c(C)c(O)c3c(O)c2C(=O)[C@H]1O[C@H]1C[C@@H](O[C@H]2C[C@@H](O[C@H]3C[C@](C)(O)[C@H](O)[C@@H](C)O3)[C@@H](O)[C@@H](C)O2)[C@H](O)[C@@H](C)O1 [PLICAMYCIN]	0	1	6	0	0	yes	0	100	0	4 days	0	24	3	6	0	0	Dose-dependant	
C[C@@H](CN1CC(=O)NC(=O)C1)N1CC(=O)NC(=O)C1 [DEXRAZOXANE]	0	0	0	0	0	yes	0	13	0	1 week	0	3	0	0	0	0	Dose-dependant	
CCOc1ccc(NC(C)=O)cc1 [PHENACETIN]	0	1	0	0	2	yes	0	0	0	2 days - 2 years	0	2	0	4	0	0	Dose-dependant	
